Legend:
[1] = human gut metagenome, 24 h, 2 µM
[2] = (§1) The drug is tested on WLS-039 corresponding to human gut metagenome with ENA study accession number: PRJEB37062 and ENA sample accession number: ERS12561746 for biotransformation under anaerobic condition. The drug concentrations were measured over 9 timepoints collected between 0 and 24 hours of incubation by liquid-chromatography-coupled mass spectrometry (LC–MS); details: 2 µM
[3] = human gut metagenome, 24 h, 2 µM; remark: listed apart in the source
[4] = as §1, with “WLS-077” for “WLS-039”, “ERS12561750” for “ERS12561746”; details: 2 µM
[5] = as §1, with “Z-011” for “WLS-039”, “mouse” for “human”, “ERS12561811” for “ERS12561746”; details: 2 µM
[6] = human gut metagenome, 24 h, 2 µM; remark: listed apart in the source
[7] = human gut metagenome, 24 h, 2 µM; remark: listed apart in the source
[8] = human gut metagenome, 24 h, 2 µM; remark: listed apart in the source
[9] = as §1, with “WLS-310” for “WLS-039”, “ERS12561785” for “ERS12561746”; details: 2 µM
[10] = as §1, with “Z-003” for “WLS-039”, “pig” for “human”, “ERS12561803” for “ERS12561746”; details: 2 µM
[11] = as §1, with “Z-029” for “WLS-039”, “rat” for “human”, “ERS12561828” for “ERS12561746”; details: 2 µM
[12] = human gut metagenome, 24 h, 2 µM; remark: listed apart in the source
[13] = as §1, with “Z-019” for “WLS-039”, “rat” for “human”, “ERS12561818” for “ERS12561746”; details: 2 µM
[14] = human gut metagenome, 24 h, 2 µM; remark: listed apart in the source
[15] = as §1, with “Z-010” for “WLS-039”, “to” for “to human gut”, “ERS12561810” for “ERS12561746”; details: 2 µM
[16] = as §1, with “Z-007” for “WLS-039”, “rat” for “human”, “ERS12561807” for “ERS12561746”; details: 2 µM
[17] = as §1, with “WLS-086” for “WLS-039”, “ERS12561752” for “ERS12561746”; details: 2 µM
[18] = as §1, with “WLS-090” for “WLS-039”, “ERS12561753” for “ERS12561746”; details: 2 µM
[19] = human gut metagenome, 24 h, 2 µM; remark: listed apart in the source
[20] = human gut metagenome, 24 h, 2 µM; remark: listed apart in the source
Also: call rule not given here.

| SMILES | Bacterial Biotransformation [1] | Bacterial Biotransformation [2] | Bacterial Biotransformation [3] | Bacterial Biotransformation [4] | Bacterial Biotransformation [5] | Bacterial Biotransformation [6] | Bacterial Biotransformation [7] | Bacterial Biotransformation [8] | Bacterial Biotransformation [9] | Bacterial Biotransformation [10] | Bacterial Biotransformation [11] | Bacterial Biotransformation [12] | Bacterial Biotransformation [13] | Bacterial Biotransformation [14] | Bacterial Biotransformation [15] | Bacterial Biotransformation [16] | Bacterial Biotransformation [17] | Bacterial Biotransformation [18] | Bacterial Biotransformation [19] | Bacterial Biotransformation [20] |
| --- | --- | --- | --- | --- | --- | --- | --- | --- | --- | --- | --- | --- | --- | --- | --- | --- | --- | --- | --- | --- |
| C=CC[C@@H]1/C=C(\C)C[C@H](C)C[C@H](OC)[C@H]2O[C@@](O)(C(=O)C(=O)N3CCCC[C@H]3C(=O)O[C@H](/C(C)=C/[C@@H]3CC[C@@H](O)[C@H](OC)C3)[C@H](C)[C@@H](O)CC1=O)[C@H](C)C[C@@H]2OC.O [TACROLIMUS] | Compound metabolized | Compound metabolized | Compound metabolized | Compound metabolized | Compound NOT metabolized | Compound metabolized | Compound metabolized | Compound metabolized | Compound metabolized | Compound metabolized | Compound NOT metabolized | Compound metabolized | Compound NOT metabolized | Compound metabolized | Compound NOT metabolized | Compound NOT metabolized | Compound metabolized | Compound metabolized | Compound NOT metabolized | Compound metabolized |
| CCS(=O)(=O)CCn1c([N+](=O)[O-])cnc1C [TINIDAZOLE] | Compound metabolized | Compound metabolized | Compound metabolized | Compound metabolized | Compound metabolized | Compound metabolized | Compound metabolized | Compound metabolized | Compound metabolized | Compound metabolized | Compound metabolized | Compound metabolized | Compound metabolized | Compound metabolized | Compound metabolized | Compound metabolized | Compound metabolized | Compound metabolized | Compound metabolized | Compound NOT metabolized |
| COc1ccc(CN2CCNCC2)c(OC)c1OC.Cl.Cl [TRIMETAZIDINE DIHYDROCHLORIDE] | Compound NOT metabolized | Compound NOT metabolized | Compound NOT metabolized | Compound NOT metabolized | Compound NOT metabolized | Compound NOT metabolized | Compound NOT metabolized | Compound NOT metabolized | Compound NOT metabolized | Compound NOT metabolized | Compound NOT metabolized | Compound NOT metabolized | Compound NOT metabolized | Compound NOT metabolized | Compound NOT metabolized | Compound NOT metabolized | Compound NOT metabolized | Compound NOT metabolized | Compound NOT metabolized | Compound NOT metabolized |
| CN1[C@@H]2CC[C@H]1C[C@@H](OC(=O)c1c[nH]c3ccccc13)C2 [TROPISETRON] | Compound NOT metabolized | Compound NOT metabolized | Compound NOT metabolized | Compound NOT metabolized | Compound NOT metabolized | Compound NOT metabolized | Compound metabolized | Compound NOT metabolized | Compound NOT metabolized | Compound NOT metabolized | Compound NOT metabolized | Compound NOT metabolized | Compound NOT metabolized | Compound NOT metabolized | Compound NOT metabolized | Compound NOT metabolized | Compound metabolized | Compound metabolized | Compound NOT metabolized | Compound NOT metabolized |

Source: ChEMBL document CHEMBL5724914, “Linking interpersonal differences in gut microbiota composition and drug biotransformation activity” (2024)
